Laboratory results from patent US11331364B2, “Use for JNK inhibitor molecules for treatment of various diseases” (Xigen Inflammation Ltd., priority 2014, dated 2022).
Square brackets hold non-standard residues; d marks the D form. Peptide text beside a SMILES is read from it.

Columns and labels:
human whole blood = experiment: CD3/CD28-induced TNF-α release in human whole blood, 3 days; assay type: cell-based; conditions: 1, 3, 10 μM, antibodies 2 μg/mL
Procedure: FIG. 24 JNK inhibition and TNF-α release in human whole blood. The JNK inhibitor with SEQ ID NO: 172 was added at three different concentrations, namely 1, 3 and 10 μM 1 h before whole blood stimulation with CD3+/−CD28 antibodies (2 μg/mL) for 3 days.
Whole blood from human healthy volunteers was collected using a venipuncture connected to a pre-labeled vacuum tube containing sodium citrate. Tubes are gently mixed by inversion 7-8 times; and are then kept at RT until stimulation. 350 μl of RPMI+P/S were added into 1.2 ml-96-well plate. 10 times concentrated of SEQ ID NO: 172 was prepared in RPMI+P/S (50 μl per well). 50 μl was added into 1.2 ml-96 well plates. 50 μl of whole blood was then added in each well where either medium alone or JNK inhibitor has been previously added. Whole blood was incubated at 37° C., 5% CO2 for 60 min. 50 μl/well of ligands diluted in RPMI+P/S was prepared, corresponding to the final dilution 10 times concentrated. After 60 min of incubation, ligand was added; wells were then mixed by pipetting up and down the blood. Whole blood was incubated for 3 days at 37° C. (wells were mixed by pipetting each well up and down once per day). […] Cytokine were then measured using standard Elisa kits. Results are expressed as pg/ml of supernatant of the measured cytokine. […]

[1] = tested on: Imiquimod-induced psoriasis in mice; experiment: Imiquimod-induced psoriasis, ear histopathology; assay type: in vivo, mouse
Procedure: Female BALB/cAnNCrl mice (Charles River, age 8 to 10 weeks at study start) have been assigned to the following groups (treatment schedule):
In this experiment, two positive controls have been utilized. Firstly, Prednisolone at 10 mg/kg (vehicle: 1% Hydroxyethylcellulose, 0.25% Polysorbate 80, and 0.05% Antifoam in purified water) has been dosed daily and orally (group “Prednisolone”). Secondly, Dexamethasone has been administered at 0.5 mg/kg (vehicle: sterile 0.9% NaCl) on days 1, 4 and 7 via intravenous route.
On day 8, animals have been sacrificed and the tissue (ear) has been fixed in 10% neutral buffered formalin. For histopathology hematoxylin-and-eosin-stained sections (cross cut) have been prepared and microscopic evaluation on the collected tissues from all animals has been performed. Methods and end-points for histopathology were similarly described in the van der Fits (2009) paper in that inflammation, epidermal hyperplasia, epidermal hyperkeratosis (rather than parakeratosis) were observed and recorded for severity grade, whereby the respective methodology from Van der Fits et al. (The Journal of Immunology 2009, 182, P. 5836-5845) is hereby incorporated by reference. Histopathology grading scores were excluded for either skin or ear in animals with secondary inflammatory processes (full thickness epidermal ulcers). Scores were averaged by group and standard deviation and statistical significance were calculated. […] Formalin-fixed, paraffin embedded skin from the dorsal surface of the mouse (BALB/c) was stained with hematoxylin and eosin (H&E) stain and assessed microscopically. An important difference from the above reference and to describe in more detail the observations of the present study: Hyperkeratosis can be defined specifically as orthokeratotic (no retained nuclei) or parakeratotic (retained nuclei). Either can occur normally in various anatomical locations and depending on species; however, both conditions are well defined in particular disease states. The van der Fits paper describes their Imiquimod (IMQ)-induced psoriasis model as causing parakeratotic hyperkeratosis similar to what is seen in the human condition, and that was a defined end-point for this study. However, the Danilenko et al. (Veterinary Pathology 2008 45:563) has shown that many rodent psoriasis models have orthokeratotic hyperkeratosis. […] The more general term ‘hyperkeratosis’ was used for grading end-points and describe in the text what type was seen (primarily orthokeratotic).
Microscopic Histopathology end-points were graded as such: […]

[2] = tested on: experimental renal ischemia/reperfusion in rats; experiment: Renal ischemia/reperfusion (clamping both renal pedicles 40 min), Wistar rats; assay type: in vivo, rat; conditions: 2 mg/kg IV one hour after clamping; 24 h following ischemia
Procedure: Renal ischemia will be induced by clamping both renal pedicles with atraumatic clamp (induction of necropathy). One unique dose of the JNK inhibitor of SEQ ID NO: 172 (2000 μg/kg) will be administered intravenously (IV) into the tail vein on Day 0, one hour after clamping period (after reperfusion) both renal pedicles with atraumatic clamp. The administration volume will be 2 ml/kg. Heparin (5000 IU/kg) will be administered intraperitoneally 1 hour before clamping.
Each day, the general behavior and the appearance of all animals is observed. […] For the evaluation of the renal function, serum creatinine ([…]) or urea concentrations (mmol/mL) are measured with the appropriate kits (Bayer Healthcare AG, Leverkusen, Germany). […]
Twenty-six (26) male Wistar rats (age 5-6 weeks) were used in this study (divided into 2 groups of 10 rats and 1 group of 6 rats). […] The health of the animals was monitored (moribund animals, abnormal important loss of weight, major intolerance of the substance, etc. . . . ). […]
For evaluation of renal function, blood was collected from the tail vein at 24 hours after reperfusion. Serum creatinine ([…]) and urea concentrations (mmol/mL) were measured using appropriate kits (Bayer Healthcare AG, Leverkusen, Germany). […]

## CC(C)C[C@H](NC(=O)[C@H](CC(N)=O)NC(=O)[C@H](CC(C)C)NC(=O)[C@@H](NC(=O)[C@@H](C)NC(=O)[C@@H]1CCCN1C(=O)[C@H](CCCNC(=N)N)NC(=O)[C@@H](CCCCN)NC(=O)[C@@H]1CCCN1C(=O)[C@H](CCCNC(=N)N)NC(=O)[C@@H](CCCNC(=N)N)NC(=O)[C@H](CCCNC(=N)N)NC(=O)[C@H](CCCNC(=N)N)NC(=O)[C@H](CCC(N)=O)NC(=O)[C@@H](CCCNC(=N)N)NC(=O)[C@H](CCCNC(=N)N)NC(=O)[C@H](CCCCN)NC(=O)[C@H](CCCCN)NC(=O)[C@H](N)CCCNC(=N)N)[C@@H](C)O)C(=O)N[C@H](Cc1ccccc1)C(N)=O [SEQ ID NO: 172, rKKRrQRRrRPkRPaTLNLf] (H-[dR]KKR[dR]QRR[dR]RP[dK]RP[dA]TLNL[dF]-NH2; N-terminus assumed)
Human whole blood
  CD3/CD28-induced TNF-α release: did reduce the CD3/CD28-induced TNF-α release in a dose-dependent manner
[1]; 0.02 mg/kg IV days 1, 4, 7
  epidermal hyperkeratosis of the ear (average grades): minimally decreased average grades
[1]; 0.2 mg/kg IV days 1, 4, 7
  epidermal hyperplasia of the ear: Minimal decreases in epidermal hyperplasia of the ear
  inflammation of the ear (average grade) vs vehicle-IMQ: decreased inflammation of the ear
[1]; 0.2 mg/kg IV days 1, 4, 7, listed as XG-104
  inflammation of the ear (average grade) vs vehicle-IMQ: significant differences from the vehicle control group
[1]; 2 mg/kg IV days 1, 4, 7
  inflammation of the ear (average grade) vs vehicle-IMQ: decreased inflammation of the ear
[2]
  serum creatinine relative to untreated ischemic rats: lower serum creatinine
  urea relative to untreated ischemic rats: lower urea
